From US7998460B2, “Prevention of deficits in neurogenesis with anti-inflammatory agents” (The Board of Trustees of the Leland Stanford Junior …, priority 2003, dated 2011)

System: adult hippocampus-derived neural precursor cells
Test: In vitro neuronal differentiation (doublecortin) of hippocampal neural progenitor cells, 60 hours
Assay type: cell-based, rat
Settings: 60 hours differentiation
Description: Neuroinflammation could inhibit neurogenesis by a variety of mechanisms, including stimulation of the HPA axis with subsequent elevation of gluccocorticoids, alterations in the relationships between progenitor cells and cells of the neuro-vasculature, or direct effects of activated microglia on the precursor cells. To determine the extent to which microglial activation might directly affect neural stem/progenitor cells, microglia were stimulated in vitro with LPS. LPS is a potent activator of microglia and up-regulates the elaboration of pro-inflammatory cytokines, including IL-6 and TNF-α. LPS-stimulated or resting microglia were then co-cultured with normal neural stem cells from the hippocampus under conditions that typically stimulate the differentiation of 30 to 40% of the progenitor cells into immature Dcx-expressing neurons (normalized to a value of 1 in FIG. 2A, control). Neurogenesis in the presence of microglia was assessed as the increase or decrease in Dcx-expressing cells relative to control. Co-culture with activated, but not resting, microglia decreased in vitro neurogenesis to approximately half of control levels (FIG. 2A). LPS added directly to precursor cells had no effect on neurogenesis.
To determine if this effect was due to soluble factors or due to cell-cell contact, hippocampal precursor cells were differentiated in the presence of media pre-conditioned by resting or activated microglia.
Activated microglia produce the potent pro-inflammatory cytokines interleukin-1β (IL-1β), tumor necrosis factor-α (TNF-α), interferon-γ (INF-γ) and interleukin-6 (IL-6). Progenitor cells were allowed to differentiate in the presence of each cytokine and the relative expression of Dcx was scored after 60 hours. […] Addition of neutralizing anti-IL-6 antibody to CM from activated microglia was able to fully restore in vitro neurogenesis (FIG. 2A). This implicated IL-6 as a key inhibitor of neurogenesis in microglial CM. […] In contrast to neurogenesis, gliogenesis was unaffected by IL-6 exposure as indicated by the lack of change in the number of cells expressing the astrocyte (glial fibrillary acidic protein, GFAP) or early oligodendrocyte (NG2) markers relative to control cultures (FIG. 2E). The hippocampal precursors used in this study do express the IL-6 receptor, as confirmed by RT-PCR (FIG. 5).
Progenitor Cell Culture Adult hippocampus-derived neural precursor cells were isolated from adult rat hippocampus and cultured as previously described. Briefly, adult female Fisher-344 rats were deeply anesthetized with sodium pentobarbital and were dissected immediately. Hippocampi were enzymatically dissociated with papain (2.5 U/ml; Worthington, Freehold, N.J.)-dispase II (1 U/ml; Boehringer Mannheim, Indianapolis, Ind.)-DNase I (250 U/ml, Worthington) solution. Digested tissue was then washed with DMEM-10% fetal calf serum (FCS) and subsequently mixed with PBS-equilibrated Percoll solution to a final concentration of 35% Percoll. The Percoll solution was made by mixing nine parts of Percoll (Amersham Pharmacia Biotech, Uppsala, Sweden) with one part of 10× PBS. The cell suspension was then fractionated by centrifugation for 10 min at 1000×gravity. Floating myelin and tissue debris were discarded and the cell pellet re-suspended in 65% Percoll solution and fractionated again by centrifugation for 10 min at 1000×g. The floating neural precursors were collected, washed free of Percoll, and plated onto poly-L-ornithine/laminin-coated dishes in DMEM/F12 (1:1) containing 10% FCS medium for 24 hrs; then medium was replaced with serum-free growth medium consisting of DMEM/F12 (1:1) supplemented with N2 supplement (Life Technologies, Gaithersburg, Md.) and 20 ng/ml of human recombinant FGF-2 (Peprotech, Rocky Hill, N.J.). Cell lines were labeled via infection with replication deficient GFP-expressing recombinant retrovirus LZRS-CAMut4GFP. […]

lipopolysaccharide [LPS]
effect on in vitro neurogenesis (Dcx-expressing cells relative to control): no effect
